Legend:
Caco-2 [1] = assay: cell viability relative to DMSO; higher = less toxic; conditions: 72 h
HepG2 [2] = assay: as above; conditions: 72 h
U2OS [3] = assay: as above; conditions: 72 h
Vero E6 [4] = assay: as above; conditions: 72 h
Calu-3 [5] = assay: as above; conditions: 72 h
[6] = system: A549-ACE2 infected with SARS-CoV-2; assay: SARS-CoV-2 infection rate relative to DMSO; higher = more infection; conditions: 24 h
Caco-2 [7] = assay: drug sensitivity score (DSS) for viability; higher = more toxic; extreme values may be limits of the assay; conditions: 72 h
HepG2 [8] = assay: as above; conditions: 72 h
U2OS [9] = assay: as above; conditions: 72 h
Vero E6 [10] = assay: as above; conditions: 72 h
Calu-3 [11] = assay: as above; conditions: 72 h
HepG2 [12] = assay: relative viability EC50 (midpoint between 100% and the lowest measured viability); higher = less toxic; conditions: 72 h
Vero E6 [13] = assay: as above; conditions: 72 h
Calu-3 [14] = assay: as above; conditions: 72 h
[15] = system: A549-ACE2 infected with SARS-CoV-2; assay: morphology score (similarity to uninfected cells); higher = more like uninfected cells; conditions: 24 h
A549-ACE2 [16] = assay: phospholipidosis EC50; higher = less potent phospholipidosis inducer
[17] = system: A549-ACE2 infected with SARS-CoV-2; assay: cell count relative to DMSO; higher = less toxic; conditions: 24 h
A549-ACE2 [18] = assay: drug-induced phospholipidosis relative to tamoxifen; higher = more phospholipidosis
Caco-2 [19] = assay: relative viability EC50 (midpoint between 100% and the lowest measured viability); higher = less toxic; conditions: 72 h
U2OS [20] = assay: as above; conditions: 72 h

CCCCCCCCc1ccc(CCC(N)(CO)CO)cc1 [fingolimod]
Conditions	SARS-CoV-2 infection rate [%]	cell count [%]	cell viability [%]	morphology score	phospholipidosis EC50 [µM]
A549-ACE2 [16], 24 h	–	–	–	–	3.36
A549-ACE2 [16], 48 h	–	–	–	–	3.04
A549-ACE2 [16], 72 h	–	–	–	–	5.67
Caco-2 [1], 1 nM	–	–	101	–	–
Caco-2 [1], 10 nM	–	–	100	–	–
Caco-2 [1], 100 nM	–	–	87.2	–	–
Caco-2 [1], 1000 nM	–	–	93.8	–	–
Caco-2 [1], 10000 nM	–	–	55.7	–	–
Calu-3 [5], 1 nM	–	–	101	–	–
Calu-3 [5], 10 nM	–	–	104	–	–
Calu-3 [5], 100 nM	–	–	102	–	–
Calu-3 [5], 1000 nM	–	–	94.9	–	–
Calu-3 [5], 10000 nM	–	–	8.4	–	–
HepG2 [2], 1 nM	–	–	107	–	–
HepG2 [2], 10 nM	–	–	105	–	–
HepG2 [2], 100 nM	–	–	99.5	–	–
HepG2 [2], 1000 nM	–	–	98	–	–
HepG2 [2], 10000 nM	–	–	0.4	–	–
U2OS [3], 1 nM	–	–	102	–	–
U2OS [3], 10 nM	–	–	105	–	–
U2OS [3], 100 nM	–	–	102	–	–
U2OS [3], 1000 nM	–	–	105	–	–
U2OS [3], 10000 nM	–	–	71.9	–	–
Vero E6 [4], 1 nM	–	–	105	–	–
Vero E6 [4], 10 nM	–	–	95.4	–	–
Vero E6 [4], 100 nM	–	–	105	–	–
Vero E6 [4], 1000 nM	–	–	101	–	–
Vero E6 [4], 10000 nM	–	–	84.7	–	–
[6], 0.3 µM	100	–	–	–	–
[6], 3 µM	64	–	–	–	–
[6], 10 µM	12	–	–	–	–
[15], 0.3 µM	–	–	–	-0.2	–
[15], 3 µM	–	–	–	0.46	–
[15], 10 µM	–	–	–	0.74	–
[17], 0.3 µM	–	100	–	–	–
[17], 3 µM	–	109	–	–	–
[17], 10 µM	–	114	–	–	–

Conditions	drug sensitivity score	relative viability EC50 [µM]
Caco-2 [7]	3.3	–
Calu-3 [11]	5.8	–
Calu-3 [14]	–	2.73
HepG2 [8]	5.8	–
HepG2 [12]	–	3.02
U2OS [9]	0.9	–
Vero E6 [10]	0.2	–
Vero E6 [13]	–	> 10

drug-induced phospholipidosis [%], A549-ACE2 [18]
Conditions	0.3 µM	0.833333 µM	3.33333 µM	6.66667 µM	10 µM
24 h	9.06	18.8	83.3	124	138
48 h	8.05	10.9	84.5	114	135
72 h	4.63	6.35	49.7	102	130

COc1cc(NC(C)CCCN)c2ncccc2c1 (stereo not given) [primaquine]
Conditions	SARS-CoV-2 infection rate, [6] [%]	cell count, [17] [%]	cell viability, Caco-2 [1] [%]	cell viability, Calu-3 [5] [%]	cell viability, HepG2 [2] [%]	cell viability, U2OS [3] [%]	cell viability, Vero E6 [4] [%]	morphology score, [15]
1 nM	–	–	103	104	122	103	108	–
10 nM	–	–	108	90.7	107	102	105	–
100 nM	–	–	91.8	106	108	102	99.7	–
0.3 µM	97	102	–	–	–	–	–	-0.01
1000 nM	–	–	93.9	100	110	101	102	–
10000 nM	–	–	45.2	76.9	80.3	88.9	89.9	–

Conditions	drug sensitivity score	relative viability EC50 [µM]
Caco-2 [7]	4	–
Caco-2 [19]	–	2.25
Calu-3 [11]	0.8	–
Calu-3 [14]	–	> 10
HepG2 [8]	0.3	–
HepG2 [12]	–	> 10
U2OS [9]	0	–
U2OS [20]	–	> 10
Vero E6 [10]	0	–
Vero E6 [13]	–	> 10

A549-ACE2 [18], 0.3 µM
Conditions	drug-induced phospholipidosis [%]
24 h	2.39
48 h	2.15
72 h	2.76

CCN(CC)CCNC(=O)c1c(C)[nH]c(/C=C2\C(=O)Nc3ccc(F)cc32)c1C [sunitinib]
Conditions	drug sensitivity score
Caco-2 [7]	5.7
Calu-3 [11]	0.1
HepG2 [8]	9
U2OS [9]	4
Vero E6 [10]	4.1

Conditions	morphology score, 0.1 µM	morphology score, 0.3 µM	morphology score, 1 µM	morphology score, 3 µM	phospholipidosis EC50, 24 h [µM]	phospholipidosis EC50, 48 h [µM]	phospholipidosis EC50, 72 h [µM]
A549-ACE2 [16]	–	–	–	–	4.75	4.77	3.32
[15]	0.28	0.35	0.53	0.51	–	–	–

COc1ccc2cc(-c3nc(-c4ccc([S+](C)[O-])cc4)[nH]c3-c3ccncc3)ccc2c1 (stereo not given) [tie2-kinase-inhibitor]
Conditions	SARS-CoV-2 infection rate [%]	cell count [%]	cell viability [%]	morphology score	phospholipidosis EC50 [µM]
A549-ACE2 [16], 24 h	–	–	–	–	7.52
A549-ACE2 [16], 48 h	–	–	–	–	6.68
Caco-2 [1], 1 nM	–	–	104	–	–
Caco-2 [1], 10 nM	–	–	102	–	–
Caco-2 [1], 100 nM	–	–	108	–	–
Caco-2 [1], 1000 nM	–	–	89.6	–	–
Caco-2 [1], 10000 nM	–	–	97.4	–	–
Calu-3 [5], 1 nM	–	–	104	–	–
Calu-3 [5], 10 nM	–	–	103	–	–
Calu-3 [5], 100 nM	–	–	101	–	–
Calu-3 [5], 1000 nM	–	–	98.1	–	–
Calu-3 [5], 10000 nM	–	–	56.7	–	–
HepG2 [2], 1 nM	–	–	109	–	–
HepG2 [2], 10 nM	–	–	103	–	–
HepG2 [2], 100 nM	–	–	98.6	–	–
HepG2 [2], 1000 nM	–	–	91.7	–	–
HepG2 [2], 10000 nM	–	–	79.9	–	–
U2OS [3], 1 nM	–	–	104	–	–
U2OS [3], 10 nM	–	–	97.3	–	–
U2OS [3], 100 nM	–	–	106	–	–
U2OS [3], 1000 nM	–	–	96.5	–	–
U2OS [3], 10000 nM	–	–	84.6	–	–
Vero E6 [4], 1 nM	–	–	102	–	–
Vero E6 [4], 10 nM	–	–	102	–	–
Vero E6 [4], 100 nM	–	–	97.1	–	–
Vero E6 [4], 1000 nM	–	–	104	–	–
Vero E6 [4], 10000 nM	–	–	98.9	–	–
[6], 0.3 µM	98	–	–	–	–
[6], 3 µM	87	–	–	–	–
[6], 10 µM	43	–	–	–	–
[6], 30 µM	59	–	–	–	–
[15], 0.3 µM	–	–	–	0.15	–
[15], 3 µM	–	–	–	0.39	–
[15], 10 µM	–	–	–	0.69	–
[15], 30 µM	–	–	–	0.58	–
[17], 0.3 µM	–	101	–	–	–
[17], 3 µM	–	114	–	–	–
[17], 10 µM	–	122	–	–	–
[17], 30 µM	–	112	–	–	–

Conditions	drug sensitivity score	relative viability EC50 [µM]
Caco-2 [7]	0.1	–
Caco-2 [19]	–	> 10
Calu-3 [11]	2.5	–
HepG2 [8]	1.2	–
HepG2 [12]	–	> 10
U2OS [9]	0.6	–
U2OS [20]	–	> 10
Vero E6 [10]	0	–
Vero E6 [13]	–	> 10

drug-induced phospholipidosis [%], A549-ACE2 [18]
Conditions	0.3 µM	0.833333 µM	3.33333 µM	6.66667 µM	10 µM	30 µM
24 h	3.67	4.27	13.4	35.8	68	86.8
48 h	4.58	3.03	14.7	33.7	65	56.9
72 h	3.91	-0.14	11.2	35.7	69.8	–

CN(C)CCCN1c2ccccc2Sc2ccc(C(F)(F)F)cc21 [triflupromazine]
Conditions	morphology score, 0.3 µM	morphology score, 3 µM	morphology score, 10 µM	morphology score, 30 µM	phospholipidosis EC50, 24 h [µM]	phospholipidosis EC50, 48 h [µM]	phospholipidosis EC50, 72 h [µM]
A549-ACE2 [16]	–	–	–	–	4.26	11.7	3.51
[15]	0.09	0.65	0.84	0.41	–	–	–
